The results in this text go back to ChEMBL document CHEMBL3272239, “Psychotropic agents. 3. 4-(4-Substituted piperidinyl)-1-(4-fluorophenyl)-1-butanones with potent neuroleptic activity” (J Med Chem, 1978).

Broadly, the ED50 is the midpoint of the dose-response relation. In general, LD50 refers to the dose expected to kill half of the subjects tested.

Data set [1] deals with Rattus norvegicus. Nature of the data set: Ratio of ED50 for po dosed albino Wistar rat assessed as induction of catalepsy to ED50 for apomorphine-induced stereotyped behavior in po dosed albino Wistar rat.
The subject of data set [2] is Rattus norvegicus. Briefly: Toxicity in po dosed albino Wistar rat assessed as induction of catalepsy after 8 hrs. The class given is organism-based. Conditions: in vivo.
The test system of data set [3] is Rattus norvegicus. Briefly: Inhibition of methamphetamine-induced stereotyped behavior in po dosed albino Wistar rat administered 2 hrs before methamphetamine challenge measured up to 3 hrs. The class given is functional.
Data set [4] deals with Mus musculus. Briefly: Neuroleptic activity in po dosed STD-ddY mouse assessed as protection against methamphetamine-induced toxicity administered 1 hr before methamphetamine challenge measured after 24 hrs. Format: functional.
For data set [5], the system named is Mus musculus. Nature of the data set: Neuroleptic activity in po dosed STD-ddY mouse assessed as inhibition of spontaneous motor activity by measuring number of revolution of cage for 5 mins. The class given is functional.
Data set [6] is described as follows: Acute toxicity in po dosed STD-ddY mouse assessed as mortality up to 7 days. Format: organism-based. Conditions: in vivo.
Data set [7] concerns Rattus norvegicus. Nature of the data set: Inhibition of apomorphine-induced stereotyped behavior in po dosed albino Wistar rat administered 2 hrs before apomorphine challenge measured after 20 mins. The class given is functional.
Data set [8] relates to Rattus norvegicus. Briefly: Ratio of ED50 for po dosed albino Wistar rat assessed as induction of catalepsy to ED50 for methamphetamine-induced stereotyped behavior in po dosed albino Wistar rat.
Data set [9] has as its system Rattus norvegicus. Briefly: Ratio of haloperidol ED50 to compound ED50 for methamphetamine-induced stereotyped behavior in po dosed albino Wistar rat. Format: functional.
Data set [10] concerns Rattus norvegicus. Nature of the data set: Ratio of benperidol ED50 to compound ED50 for apomorphine-induced stereotyped behavior in po dosed albino Wistar rat. Format: functional.
Data set [11] has as its system Rattus norvegicus. Briefly: Ratio of haloperidol ED50 to compound ED50 for apomorphine-induced stereotyped behavior in po dosed albino Wistar rat. The class given is functional.
The test system of data set [12] is Rattus norvegicus. Nature of the data set: Ratio of benperidol ED50 to compound ED50 for methamphetamine-induced stereotyped behavior in po dosed albino Wistar rat. The class given is functional.

For `CSc1nc2ccccc2n1C1CCN(CCCC(=O)c2ccc(F)cc2)CC1`, the “Ratio ED50” value in data set [1] is 2.7; in data set [8] it was 5.5. The ED50 turned out to be 1.1 mg/kg in data set [2]; 0.2 mg/kg in data set [3]; 0.68 mg/kg in [4]; 6.2 mg/kg in data set [5]; 0.41 mg/kg in data set [7]. In addition, in data set [6], the LD50 at 168 h turned out to be 930 mg/kg.

Turning to `O=C(CCCN1CCC(n2c(SCc3ccccc3)nc3ccccc32)CC1)c1ccc(F)cc1`, the median effective dose (ED50) in [4] was found to be 0.76 mg/kg; in [5] it was 1.3 mg/kg.

Turning to `CSc1nc2ccccc2n1C1CCN(CCCC(c2ccc(F)cc2)c2ccc(F)cc2)CC1`, the values for the 50% effective dose (ED50) in data set [4] and in [5] were 2.4 mg/kg and 13 mg/kg, respectively.

As to `Br.C=CCn1c(=S)n(C2CCN(CCCC(=O)c3ccc(F)cc3)CC2)c2ccccc21`, the ED50 in data set [5] worked out at 0.87 mg/kg.

In the case of `O=C(CCCN1CCC(n2c(SCCO)nc3ccccc32)CC1)c1ccc(F)cc1`, the median effective dose (ED50) in data set [4] is over 3 mg/kg; in data set [5], 6.9 mg/kg.

For the molecule `O=C(CCCSc1nc2ccccc2n1C1CCN(CCCC(=O)c2ccc(F)cc2)CC1)c1ccc(F)cc1`, the 50% effective dose (ED50) in [4] was over 3 mg/kg; in data set [5], 14 mg/kg.

In the case of `CCc1nc2ccccc2n1C1CCN(CCCC(=O)c2ccc(F)cc2)CC1.Cl`, the values for the ED50 in data set [4] and in [5] were over 3 mg/kg and 9.1 mg/kg, respectively.

Regarding `Cc1nc2ccccc2n1C1CCN(CCCC(c2ccc(F)cc2)c2ccc(F)cc2)CC1`, the values for the 50% effective dose (ED50) in data set [4] and in data set [5] were over 3 mg/kg and 40 mg/kg, respectively.

As for `CCSc1nc2ccccc2n1C1CCN(CCCC(=O)c2ccc(F)cc2)CC1.Cl`, the median effective dose (ED50) in data set [4] was over 3 mg/kg; in data set [5], 5 mg/kg.

Turning to `O=C(CCCN1CCC(n2c(SCC(=O)c3ccc(Cl)cc3)nc3ccccc32)CC1)c1ccc(F)cc1`, the median effective dose (ED50) was found to be 1.6 mg/kg in [4] and 5 mg/kg in [5].

`O=C(CCCN1CCC(O)(c2ccc(Cl)cc2)CC1)c1ccc(F)cc1` [HALOPERIDOL]: the figures for the “Ratio ED50” value in data set [1] and in data set [8] were 1 and 1.8, respectively. The ED50 amounted to 0.88 mg/kg in [2]; 0.5 mg/kg in [3]; 0.32 mg/kg in data set [4]; 0.8 mg/kg in [5]; 0.85 mg/kg in data set [7]. In addition, the LD50 at 168 h in [6] was determined as 240 mg/kg.

`O=C(CCCN1CCC(n2c(O)nc3ccccc32)CC1)c1ccc(F)cc1` [BENPERIDOL]: the “Ratio ED50” value in data set [1] was 1.5; in [8], 2.1. In addition, the ED50 in data set [2] amounted to 0.92 mg/kg; in [3] it was 0.44 mg/kg; in [4], 0.63 mg/kg; in [5], 0.56 mg/kg; in [7] it was 0.62 mg/kg.

As for `Br.CCOC(=O)CSc1nc2ccccc2n1C1CCN(CCCC(=O)c2ccc(F)cc2)CC1`, the ED50 in [5] is over 40 mg/kg.

For `Br.CC(C)Sc1nc2ccccc2n1C1CCN(CCCC(=O)c2ccc(F)cc2)CC1`, the figures for the ED50 in [4] and in data set [5] were 1.6 mg/kg and 4.4 mg/kg, respectively.

With `C#CCSc1nc2ccccc2n1C1CCN(CCCC(=O)c2ccc(F)cc2)CC1.Cl`, the median effective dose (ED50) stood at 0.74 mg/kg in [4] and 1.2 mg/kg in [5].

`Fc1ccc(C(CCCN2CCC(n3c(=S)[nH]c4ccccc43)CC2)c2ccc(F)cc2)cc1`: the ED50 came to 1 mg/kg in data set [4] and 20 mg/kg in [5].

As to `O=C(CCCN1CCC(n2c(=S)[nH]c3ccccc32)CC1)c1ccc(F)cc1` [TIMIPERONE], the “Ratio ED50” value amounted to 9.3 in [9]; 6.5 in [10]; 4.5 in [1]; 8.9 in data set [11]; 8.1 in data set [12]; 6.1 in data set [8]. The ED50 in [2] was found to be 0.33 mg/kg; in data set [3] it was 0.054 mg/kg; in [4], 0.55 mg/kg; in data set [5] it was 0.6 mg/kg; in data set [7], 0.095 mg/kg. Besides, the 50% lethal dose (LD50) at 168 h in data set [6] is 500 mg/kg.

On to `CCCCCCC(=O)Sc1nc2ccccc2n1C1CCN(CCCC(=O)c2ccc(F)cc2)CC1.Cl`, for which the median effective dose (ED50) in data set [4] is 1.1 mg/kg; in data set [5], 1 mg/kg.

Take `CC(=O)O.O=C(CCCN1CCC(n2c(=O)c(O)nc3ccccc32)CC1)c1ccc(F)cc1`: the figures for the 50% effective dose (ED50) in data set [4] and in [5] were over 3 mg/kg and over 40 mg/kg, respectively.

Consider `O=C(CCCN1CCC(n2nnc3ccccc32)CC1)c1ccc(F)cc1`, for which the ED50 in data set [5] came out at 33 mg/kg.

As for `Cc1nc2ccccc2n(C2CCN(CCCC(=O)c3ccc(F)cc3)CC2)c1=O`, the figures for the ED50 in [4] and in [5] were over 3 mg/kg and 14.1 mg/kg, respectively.

Take `Cl.O=C(CCCN1CCC(n2c(SC(=O)c3ccc(Cl)cc3)nc3ccccc32)CC1)c1ccc(F)cc1`: the 50% effective dose (ED50) in [4] came to 0.83 mg/kg; in data set [5] it was 0.96 mg/kg.

Regarding `O=C(CCCN1CCC(n2c(C(F)(F)F)nc3ccccc32)CC1)c1ccc(F)cc1`, in data set [5], the ED50 is over 40 mg/kg.

As to `OCCSc1nc2ccccc2n1C1CCN(CCCC(c2ccc(F)cc2)c2ccc(F)cc2)CC1`, the 50% effective dose (ED50) in [4] was over 3 mg/kg; in data set [5], 40 mg/kg.

As for `CCCCc1nc2ccccc2n1C1CCN(CCCC(=O)c2ccc(F)cc2)CC1.Cl`, the ED50 in data set [4] is over 3 mg/kg; in data set [5], 14 mg/kg.

Turning to `O=C(CCCN1CCC(n2c(Sc3ccccc3[N+](=O)[O-])nc3ccccc32)CC1)c1ccc(F)cc1`, the ED50 in data set [5] was found to be 11 mg/kg.

With `O=C(CCCN1CCC(n2cnc3ccccc32)CC1)c1ccc(F)cc1`, the ED50 in data set [4] is over 3 mg/kg; in data set [5] it was 4.7 mg/kg.

On to `CCOC(=O)Sc1nc2ccccc2n1C1CCN(CCCC(=O)c2ccc(F)cc2)CC1`, for which the 50% effective dose (ED50) in data set [4] is 0.65 mg/kg; in data set [5], 0.36 mg/kg.

As for `Cc1nc2ccccc2n1C1CCN(CCCC(=O)c2ccc(F)cc2)CC1`, the results for the ED50 in [4] and in [5] were 0.81 mg/kg and 0.85 mg/kg, respectively.

With `Cl.O=C(CCCN1CCC(n2c(-c3ccccc3)nc3ccccc32)CC1)c1ccc(F)cc1`, the ED50 in [4] is over 3 mg/kg; in [5] it was 18 mg/kg.

On to `O=c1[nH]c2ccccc2n1C1CCN(CCCC(c2ccc(F)cc2)c2ccc(F)cc2)CC1` [PIMOZIDE], for which the figures for the 50% effective dose (ED50) in [4] and in data set [5] were 1.1 mg/kg and 7.4 mg/kg, respectively.

Take `Cl.Cn1c(=S)n(C2CCN(CCCC(=O)c3ccc(F)cc3)CC2)c2ccccc21`: the ED50 in data set [5] was 0.54 mg/kg.
